Reference: US5962314A, “Calcium receptor-active molecules” (priority 1997, dated 1999)
Entries after “also recorded” stand apart in the source; their conditions may differ. Read-outs that look alike come from different tables or passages of the source.

Legend:
[1] = molecular target: T1, human parathyroid cell calcium receptor (Homo sapiens, UniProt P41180); assay: Cl- current in Xenopus oocytes expressing human parathyroid cell calcium receptor; format: cell-based; details: for effect on Cl- current: 3 to 30 μM, 0.3 mM extracellular Ca2+
T1 construct: T7 cRNA injected into Xenopus oocytes
T1 sequence (P41180 with tags, fused parts or gaps INS536PLTFVLSVLQ/Q926R/E1011Q): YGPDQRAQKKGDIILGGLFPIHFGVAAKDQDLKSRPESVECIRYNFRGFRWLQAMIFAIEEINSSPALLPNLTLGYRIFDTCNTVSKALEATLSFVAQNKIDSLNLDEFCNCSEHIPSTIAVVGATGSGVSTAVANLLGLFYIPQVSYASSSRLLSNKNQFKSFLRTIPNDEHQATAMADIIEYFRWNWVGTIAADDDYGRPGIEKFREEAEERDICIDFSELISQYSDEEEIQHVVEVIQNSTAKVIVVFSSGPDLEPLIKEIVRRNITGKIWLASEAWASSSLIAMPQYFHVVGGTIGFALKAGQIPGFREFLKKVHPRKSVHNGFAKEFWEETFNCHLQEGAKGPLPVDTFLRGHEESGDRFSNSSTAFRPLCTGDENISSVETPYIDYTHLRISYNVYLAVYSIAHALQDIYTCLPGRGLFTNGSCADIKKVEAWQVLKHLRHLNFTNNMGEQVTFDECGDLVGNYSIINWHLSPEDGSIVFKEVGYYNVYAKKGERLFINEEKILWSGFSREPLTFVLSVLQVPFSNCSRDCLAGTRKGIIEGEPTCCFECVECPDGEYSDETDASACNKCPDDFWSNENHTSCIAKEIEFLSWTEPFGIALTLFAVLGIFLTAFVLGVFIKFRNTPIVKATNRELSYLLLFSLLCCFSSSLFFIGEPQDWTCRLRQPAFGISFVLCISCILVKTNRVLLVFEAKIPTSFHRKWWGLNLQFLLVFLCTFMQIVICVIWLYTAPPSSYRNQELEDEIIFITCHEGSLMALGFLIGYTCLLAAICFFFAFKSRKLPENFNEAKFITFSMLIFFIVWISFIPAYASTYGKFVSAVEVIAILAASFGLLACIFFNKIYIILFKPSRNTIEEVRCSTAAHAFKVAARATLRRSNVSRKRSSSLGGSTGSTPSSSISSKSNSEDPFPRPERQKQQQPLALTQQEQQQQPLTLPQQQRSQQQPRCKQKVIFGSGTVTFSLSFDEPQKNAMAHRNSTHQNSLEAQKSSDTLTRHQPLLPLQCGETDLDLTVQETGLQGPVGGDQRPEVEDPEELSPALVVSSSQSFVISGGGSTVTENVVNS
Experimental: Representative cDNA inserts for both size classes were subcloned into the plasmid vector pBluescript SK. Linearization followed by in vitro transcription using T7 RNA polymerase produced cRNA transcripts. The cRNA transcripts were injected into Xenopus oocytes (150 ng/μl RNA; 50 nl/oocyte) for functional analysis. Following incubation periods of 2-4 days, the oocytes were assayed for the presence of functional calcium receptors. Both clone types gave rise to functional calcium receptors as assessed by the stimulation of calcium-activated chloride currents upon addition of appropriate calcium receptor agonists. […] Thus, both clones encode a functional, human parathyroid cell calcium receptor.
Xenopus oocytes were injected with pHuPCaR 5.2, the 5.2 Kb cDNA encoding a parathyroid cell calcium receptor derived from a human parathyroid cell adenoma. (See Example 27.) After two to three days, Cl^- currents were measured in the oocytes using a two-electrode voltage clamp.

serum ionized calcium = assay: serum ionized Ca2+ in rats; format: in vivo, rat; details: NPS R-568 oral
Experimental: Compounds shown to activate the bovine parathyroid cell calcium receptor in vitro were tested for hypocalcemic activity in vivo. Male Sprague-Dawley rats (200 g) were maintained on a low calcium diet for one week prior to receiving test substance or vehicle as control. Blood was collected from the tail vein three hours after the intra-peritoneal administration of NPS 467. […] Serum total calcium, albumin and phosphate were measured by techniques well known in the art.
Rats (male, Sprague-Dawley, 250-300 g) were fed standard rat chow and fasted overnight prior to the experiment. NPS R-467 was suspended in corn oil and administered as a single oral dose through a gavage needle. Three hours later a sample of blood was taken from the tail vein and assessed for ionized Ca^2+ levels.

[2] = molecular target: T2, parathyroid cell calcium receptor (Bos taurus, UniProt P35384); assay: cell-based; format: cell-based
T2 sequence (P35384 20-1085): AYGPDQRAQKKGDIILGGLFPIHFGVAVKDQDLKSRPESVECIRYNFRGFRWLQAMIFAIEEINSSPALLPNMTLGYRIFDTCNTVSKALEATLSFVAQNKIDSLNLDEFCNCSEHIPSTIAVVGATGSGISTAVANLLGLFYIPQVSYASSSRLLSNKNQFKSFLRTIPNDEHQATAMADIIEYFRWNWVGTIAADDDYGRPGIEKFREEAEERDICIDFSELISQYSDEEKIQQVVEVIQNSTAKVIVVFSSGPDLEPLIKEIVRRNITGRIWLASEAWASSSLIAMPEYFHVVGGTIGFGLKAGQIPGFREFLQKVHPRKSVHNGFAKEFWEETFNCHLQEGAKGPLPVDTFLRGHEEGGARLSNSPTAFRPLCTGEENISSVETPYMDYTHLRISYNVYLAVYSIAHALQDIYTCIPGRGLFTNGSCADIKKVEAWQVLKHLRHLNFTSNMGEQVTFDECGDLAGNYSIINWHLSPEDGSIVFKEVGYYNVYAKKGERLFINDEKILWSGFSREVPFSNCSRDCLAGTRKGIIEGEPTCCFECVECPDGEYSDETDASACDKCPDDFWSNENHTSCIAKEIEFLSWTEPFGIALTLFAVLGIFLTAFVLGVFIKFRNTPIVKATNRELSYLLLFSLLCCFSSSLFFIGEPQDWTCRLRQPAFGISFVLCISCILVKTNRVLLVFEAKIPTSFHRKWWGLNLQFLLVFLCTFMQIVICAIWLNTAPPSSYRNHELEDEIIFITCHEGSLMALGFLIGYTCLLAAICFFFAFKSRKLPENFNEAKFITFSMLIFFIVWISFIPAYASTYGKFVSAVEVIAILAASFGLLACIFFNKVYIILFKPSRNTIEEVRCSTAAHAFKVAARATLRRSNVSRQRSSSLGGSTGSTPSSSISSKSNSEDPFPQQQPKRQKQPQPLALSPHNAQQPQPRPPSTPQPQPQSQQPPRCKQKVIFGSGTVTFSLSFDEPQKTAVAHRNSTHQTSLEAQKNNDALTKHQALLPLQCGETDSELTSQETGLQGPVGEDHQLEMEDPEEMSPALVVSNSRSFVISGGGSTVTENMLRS
Experimental: For example,. bovine parathyroid cells loaded with fura-2 are initially suspended in buffer containing 0.5 mM CaCl2. A test substance is added to the cuvette in a small volume (5-15 μl) and changes in the fluorescence signal are measured. Cumulative increases in the concentration of the test substance are made in the cuvette until some predetermined concentration is achieved or no further changes in fluorescence are noted.
Human parathyroid glands, were obtained from patients undergoing surgical removal of parathyroid tissue for primary or uremic hyperparathyroidism (uremic HPT), and were treated similarly to bovine tissue.
The cells were then pelleted, resuspended in the same buffer, but lacking the ester, and incubated a further 15 minutes at 37° C. The cells were subsequently washed twice with PCB containing 0.5 mM CaCl2 and 0.5% BSA and maintained at room temperature (about 20° C.). Immediately before use, the cells were diluted five-fold with prewarmed 0.5 mM CaCl2 -PCB to obtain a final BSA concentration of 0.1%. The concentration of cells in the cuvette used for fluorescence recording was 1-2×10^6 /ml.
The fluorescence of indicator-loaded cells was measured at 37° C. in a spectrofluorimeter (Biomedical Instrumentation Group, University of Pennsylvania, Philadelphia, Pa.) equipped with a thermostated cuvette holder and magnetic stirrer using excitation and emission wavelengths of 340 and 510 nm, respectively. […] Leakage of dye is dependent on temperature and most occurs within the first 2 minutes after warming the cells in the cuvette. Dye leakage increases only very slowly thereafter. To correct the calibration for dye leakage, cells were placed in the cuvette and stirred at 37° C. for 2-3 minutes. The cell suspension was then removed, the cells pelleted, and the supernatant returned to a clean cuvette. […] This estimate was subtracted from the apparent Fmin.

[3] = tested on: osteoclast calcium receptor; assay: [Ca2+]i in indo-1-loaded rat osteoclasts; format: cell-based

NCCCNCCCCNCCCNCCCNCCCNC(=O)Cc1c[nH]c2ccccc12 [NPS 019]
effect on Cl- current [1]: evoked increases in the Cl^- | response in absence of extracellular Ca2+ [1]: persisted

COc1cccc([C@@H](C)NCCCc2ccccc2Cl)c1 [NPS R-568, (R)-(+)-N-[3-(2-chlorophenyl)propyl]-α-methyl-3-methoxybenzylamine]
hypocalcemic response after complete nephrectomy (serum ionized calcium; prior complete nephrectomy): only marginally affected | effect on serum Ca2+, oral (serum ionized calcium; rats): dose-dependent decrease in the levels of serum Ca^2+ | activation of oocyte-expressed receptor [1]: activated the oocyte-expressed receptor at about the same concentrations | effect on extracellular Ca2+ concentration-response curve [1]: shifted the concentration-response curve to the left | effect on Cl- current [1]: evoked increases in the Cl^- | response in absence of extracellular Ca2+ [1]: abolished | effect on [Ca2+]i [2]: evokes increases in [Ca^2+ ]i in bovine parathyroid cells in a stereospecific manner | effect on response to extracellular Ca2+ [2]: shifts the concentration-response curve for extracellular Ca^2+; also recorded: shift to the left in the concentration-response curve for extracellular Ca^2+ | effect on [Ca2+]i in absence of extracellular Ca2+ ([2]; Ca2+-free buffer): fails to evoke increases in [Ca^2+ ]i; also recorded: do not cause the mobilization of intracellular Ca^2+

NC[C@@H]1O[C@H](O[C@H]2[C@@H](O)[C@H](O[C@@H]3[C@@H](O)[C@H](N)C[C@H](N)[C@H]3O[C@H]3O[C@H](CN)[C@@H](O)[C@H](O)[C@H]3N)O[C@@H]2CO)[C@H](N)[C@@H](O)[C@@H]1O [Neomycin]
effect on [Ca2+]i in osteoclasts [3]: failed to evoke any increase in [Ca^2+ ]i; also recorded: Neither neomycin (10 mM) nor spermine (10 or 20 mM) caused increases in [Ca^2+ ]i; also recorded: fail to affect the calcium receptors on C-cells or osteoclasts | effect on response to extracellular Ca2+ in osteoclasts [3]: did not block the increase in [Ca^2+ ]i | effect on [Ca2+]i in osteoclasts ([3]; listed as neomycin): none of these caused any large increase in [Ca^2+ ]i | effect on [Ca2+]i in osteoclasts ([3]; listed as neomycin B): fail to evoke increases in [Ca^2+ ]i | effect on [Ca2+]i [2]: evoked rapid and transient increases in [Ca^2+ ]i | effect on [Ca2+]i ([2]; 10 μM, Ca2+-free): did not by itself cause an increase in [Ca^2+ ]i | effect on [Ca2+]i ([2]; 100 μM, Ca2+-free): evoked a rapid and transient increase in [Ca^2+ ]i | effect on extracellular Ca2+-evoked increases in [Ca2+]i ([2]; neomycin B 30 μM / maximally effective concentration): blocks transient, but does not block steady-state increases in [Ca^2+ ]i; also recorded: blocked transient, but not steady-state increases in [Ca^2+ ]i | effect on intracellular Ca2+ ([2]; neomycin B 30 μM, protamine 1 μg/ml): mobilization of intracellular Ca^2+
